Where a SMILES comes first, the peptide text is derived from it. The star is where a group is joined. NH(4-Me-phenyl) = Cc1ccc(N*)cc1; AMC = Cc1cc(=O)oc2cc(N*)ccc12; Cbz = O=C(OCc1ccccc1)*; X1 = Cc1ccc(S*)cc1; X2 = Cc1ccc(O*)cc1
Key:
[1] = Emission wavelength / spectral properties; format: physicochemical; details: comparison of compound 9 and Z-FR-AMC
[2] = Chemical stability in aqueous buffers by HPLC-MS (no enzyme); format: physicochemical; details: for chemical stability at other pH (in words): basic and acid media
Method: Figure 2 Solid‐phase peptide synthesis (SPPS) of the sequence Ac‐IGNR‐OH (compound 1) and corresponding analogues containing spacers with different connectivities. The synthesis of compounds 1–4 is described in the Supporting Information. […] TEXT PRINTED IN THE PICTURE: 2 (ester): pH 4: < 5%; pH 7: < 5%; pH 10: < 5% | 3 (thioester): pH 4: 70%; pH 7: < 5%; pH 10: < 5% | 4 (amide): pH 4: > 95%; pH 7: > 95%; pH 10: > 95%
First, we synthesized a large batch (>400 mg) of Ac‐IGNR‐OH using standard protocols for the solid‐phase synthesis of fluorescent peptides[20] in polystyrene resin derivatized with a 2‐chlorotritylchloride linker (PS‐CTC). Next, we coupled the tetrapeptide Ac‐IGNR‐OH (compound 1, Figure 2) to different aryl groups to generate the isosteric ester, thioester and amide analogues (compounds 2, 3 and 4 respectively, Figure 2). After isolation of all compounds by semi‐preparative HPLC with purities >95 %, we analyzed their chemical stability in aqueous media in the absence of hGzmA. […] We also tested their chemical integrity at different pH values because GzmA can be stored in slightly acidic cytotoxic granules inside CTLs.[21]

[3] = test system: active GzmA secreted by NK-92 cells; experiment: Detection of active GzmA in supernatants of stimulated NK-92 cells; format: cell-based, human; details: supernatants of stimulated NK-92 cells + compound 9
Description: Encouraged by the high reactivity of compound 9, we evaluated its potential application to detect active GzmA secreted by immune cells. NK cell‐based therapies are regarded as potential anticancer treatments due to their ability to secrete granzymes to the extracellular space and cause cytotoxicity in cancer cells.[24] […] To test the utility of compound 9 to measure active GzmA in cell supernatants, we performed degranulation assays in human NK‐92 cells (e.g., a patient‐derived cell line that expresses higher levels of GzmA than healthy NK cells)[25] and also tested GzmA‐negative cells (e.g., HaCaT keratinocytes, Figure S8). NK‐92 cells were stimulated with […] and ionomycin (Figure 5).[26] Cell supernatants were collected and incubated with compound 9 for 1 h, followed by spectroscopic measurements. […] Previous reports indicate that granzyme activity can be detected inside NK‐92 cells[[11b]] and that granzymes can be found within activated immune cells due to intracellular granular leakage,[27] even though granzyme activity is known to be reduced in acidic granules. To study this observation, we performed Z‐stack live‐cell confocal microscopy in NK‐92 cells after incubation with compound 9.
(§1) 5.0) prior to the enzyme assays.
(§2) All the tubes were incubated
(§3) NK- 92 cell inhibition and imaging. […]
(§4) Microsystems) and qualitatively analysed using Fiji.

NK-92 cells = experiment: Live-cell confocal microscopy of NK-92 cells; format: cell-based, human; details: 3,4-dichloroisocoumarin 5 μM, 2 h prior to labeling with compound 9 (5 μM, 1 h)
Method: Figure S9. Brightfield and fluorescence confocal microscopy merged images of live NK-92 cells upon incubation with compound 9. Representative microscopy images from 3 independent experiments of live NK-92 cells upon incubation with […]
dichloroisocoumarin (5 µM) was used as a GzmA inhibitor for 2 h prior to labeling.
as §1, §2, §3, §4

hGzmA = molecular target: T1, hGzmA (Homo sapiens, UniProt P12544); experiment: Inhibition by 3,4-dichloroisocoumarin of the fluorescence of compound 9 with hGzmA; format: biochemical; details: 3,4-dichloroisocoumarin 100 μM, compound 9 20 μM, hGzmA 20 nM, Tris buffer (pH 8)
T1 construct: in the absence or presence of active recombinant hGzmA
T1 sequence (P12544 29-262): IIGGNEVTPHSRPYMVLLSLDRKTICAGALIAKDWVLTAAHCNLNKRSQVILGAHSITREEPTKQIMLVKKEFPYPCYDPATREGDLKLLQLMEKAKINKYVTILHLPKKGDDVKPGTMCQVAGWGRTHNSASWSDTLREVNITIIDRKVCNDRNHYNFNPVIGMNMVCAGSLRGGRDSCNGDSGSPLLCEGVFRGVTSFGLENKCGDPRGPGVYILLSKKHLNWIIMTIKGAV

[4] = Tris buffer (pH 7.4), absence of hGzmA, HPLC-MS
[5] = pH 4, aqueous buffer, 2 h at 37 °C, HPLC-MS
[6] = pH 7, aqueous buffer, 2 h at 37 °C, HPLC-MS
[7] = pH 10, aqueous buffer, 2 h at 37 °C, HPLC-MS

Row | Molecule | chemical stability (in words) [2, 4] | stability (% by HPLC-MS) [2, 5] | stability (% by HPLC-MS) [2, 6] | stability (% by HPLC-MS) [2, 7] | chemical stability at other pH (in words) ([2]; HPLC-MS, 2 h at 37 °C) | further results
1 | Cbz-Phe-Arg-{AMC} |  |  |  |  |  | emission wavelength [1]: 445 nm
2 | CC[C@H](C)[C@H](NC(C)=O)C(=O)NCC(=O)N[C@@H](CC(N)=O)C(=O)N[C@@H](CCCNC(=N)N)C(=O)Oc1ccc(C)cc1 [compound 2] (Ac-IGNR-X2) | completely hydrolyzed | < 5% | < 5% | < 5% |  | 
3 | O=c1oc(Cl)c(Cl)c2ccccc12 [3,4‐dichloroisocoumarin] |  |  |  |  |  | effect of inhibitor on supernatant fluorescence (in words) [3]: blocked; effect of inhibitor on intracellular fluorescence (in words) (NK-92 cells): reduced; decrease of the fluorescence signal (hGzmA): > 90%
4 | CC[C@H](C)[C@H](NC(C)=O)C(=O)NCC(=O)N[C@@H](CC(N)=O)C(=O)N[C@@H](CCCNC(=N)N)C(=O)Nc1ccc(C)cc1 [compound 4] (Ac-IGNR-{NH(4-Me-phenyl)}) | fully stable | > 95% | > 95% | > 95% | stable in basic and acid media | purity after incubation ([2]; Tris buffer (pH 7.4), absence of hGzmA): > 95%
5 | CC[C@H](C)[C@H](NC(C)=O)C(=O)NCC(=O)N[C@@H](CC(N)=O)C(=O)N[C@@H](CCCNC(=N)N)C(=O)Sc1ccc(C)cc1 [compound 3] (Ac-IGNR-X1) | completely hydrolyzed |  | < 5% | < 5% | more stable than the carboxylic ester analogue 2 at acidic pH | remaining at 2 h [2, 5]: 70%

Reference: article PMC10108010, “Fluorogenic Granzyme A Substrates Enable Real‐Time Imaging of Adaptive Immune Cell Activity” (Angewandte Chemie (International Ed. in English), 2023)
